Assay results as given in ChEMBL document CHEMBL3132766, “Flavans from Desmos cochinchinensis as potent aromatase inhibitors” (Medchemcomm, 2013).

Assays:
Aromatase [1] = target: T1, Aromatase (Homo sapiens, UniProt P11511); assay: Inhibition of aromatase (unknown origin)
T1 sequence (P11511 whole entry): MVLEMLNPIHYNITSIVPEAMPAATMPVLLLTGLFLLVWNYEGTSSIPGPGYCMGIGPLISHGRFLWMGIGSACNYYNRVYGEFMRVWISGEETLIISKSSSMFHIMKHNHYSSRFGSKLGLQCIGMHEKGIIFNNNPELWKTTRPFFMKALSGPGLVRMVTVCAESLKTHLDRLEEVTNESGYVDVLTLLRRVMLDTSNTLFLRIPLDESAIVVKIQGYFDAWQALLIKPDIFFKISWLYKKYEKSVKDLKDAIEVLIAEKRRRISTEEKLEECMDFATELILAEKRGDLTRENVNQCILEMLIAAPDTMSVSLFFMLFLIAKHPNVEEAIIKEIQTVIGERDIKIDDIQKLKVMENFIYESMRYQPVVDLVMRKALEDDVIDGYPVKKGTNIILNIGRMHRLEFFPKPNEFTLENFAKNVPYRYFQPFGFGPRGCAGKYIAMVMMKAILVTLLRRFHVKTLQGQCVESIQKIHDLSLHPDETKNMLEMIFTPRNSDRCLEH

HepG2 = assay: Cytotoxicity against human HepG2 cells by MTT assay; type: functional, cell-based
A549 = assay: Cytotoxicity against human A549 cells by MTT assay; type: functional, cell-based
Aromatase [2] = target: T1, Aromatase; assay: Inhibition of human recombinant aromatase expressed in baculovirus infected insect cells using O-benzylfluorescein benzyl ester as substrate after 30 mins
[3] = Cytotoxicity against human MOLT3 cells by XTT assay; type: functional, cell-based; conditions: MOLT-3
[4] = Cytotoxicity against human HuCCa1 cells by MTT assay; type: functional, cell-based, HuCC-A1
[5] = Homo sapiens, A549, read-out: IC50
[6] = Homo sapiens, HuCC-A1, read-out: IC50
[7] = Homo sapiens, HepG2, read-out: IC50

SMILES | IC50 (Aromatase [1]) [µM] | IC50 (Aromatase [2]) [µM] | IC50 (HepG2; hepg2) | IC50 (A549; [5]) [µM] | IC50 [3] [µM] | IC50 [4, 6] [µM] | IC50 (HepG2; [7]) [µM] | IC50 ([4]; hucc-a1) | IC50 (A549; a549)
COc1c(C)c(OC)c2c(c1C=O)O[C@H](c1ccccc1)C[C@H]2O | – | 1.01 | – | 137 | 57.4 | – | 99.6 | Not Active | –
COc1c(C)c(O)c2c(c1C)O[C@H](c1ccccc1)CC2=O | – | > 12.5 | Not Active | – | 72 | – | – | Not Active | Not Active
O=C1C[C@@H](c2ccccc2)Oc2cc(O)cc(O)c21 [PINOCEMBRIN] | 0.9 | – | – | – | – | – | – | – | –
COc1cccc2c1C(=O)c1c(O)c3c(c(O)c1C2=O)C[C@@](O)(C(=O)CO)C[C@@H]3O[C@H]1C[C@H](N)[C@H](O)[C@H](C)O1 [DOXORUBICIN] | – | – | – | – | – | 1.1 | – | – | –
COc1c(C)c(O)c(C=O)c2c1[C@H](OC)C[C@@H](c1ccccc1)O2 | – | 0.15 | – | 104 | 28.5 | 125 | 145 | – | –
COc1c(C)c(OC)c2c(c1C)O[C@H](c1ccccc1)C[C@H]2O | – | 10.7 | – | – | 63.5 | – | 135 | Not Active | Not Active
COc1cc([C@@H]2c3cc4c(cc3[C@@H](O[C@@H]3O[C@@H]5CO[C@@H](C)O[C@H]5[C@H](O)[C@H]3O)[C@H]3COC(=O)[C@H]23)OCO4)cc(OC)c1O [ETOPOSIDE] | – | – | – | – | 0.03 | – | 22.1 | – | –
COc1cc(O)c2c(c1C)O[C@H](c1ccccc1)CC2=O | – | 0.6 | – | – | – | – | – | – | –
COc1c(C)c(O)c(C=O)c2c1[C@H](O)C[C@@H](c1ccccc1)O2 | – | 0.08 | – | – | 29.8 | 143 | 143 | – | Not Active

Further lines, with some results ahead:

IC50 (Aromatase [1]) [µM] | IC50 (Aromatase [2]) [µM] | SMILES | IC50 (HepG2; hepg2) | IC50 (A549; [5]) [µM] | IC50 [3] [µM] | IC50 [4, 6] [µM] | IC50 (HepG2; [7]) [µM] | IC50 ([4]; hucc-a1) | IC50 (A549; a549)
3.3 | – | COc1cc(O)c([C@@H]2C[C@@H](c3ccccc3)Oc3c(C=O)c(O)cc(O)c32)c(O)c1C(=O)/C=C/c1ccccc1 | – | – | – | – | – | – | –
– | 0.04 | COc1cc(O)c(C=O)c2c1[C@H](O)C[C@@H](c1ccccc1)O2 | Not Active | 147 | 24.3 | 130 | – | – | –
– | 0.09 | COc1cc(O)c(C=O)c2c1[C@H](OC)C[C@@H](c1ccccc1)O2 | Not Active | – | 41.3 | 140 | – | – | Not Active
1.8 | – | COc1cc(O)c([C@H]2C[C@@H](c3ccccc3)Oc3c(C=O)c(O)cc(O)c32)c(O)c1C(=O)/C=C/c1ccccc1 | – | – | – | – | – | – | –
